Laboratory results taken from patent US7071206B2, “Agents for treating neurodegenerative disorders” (Medivation, Inc., priority 1995, dated 2006).

What was measured:
[1] = tested on: patients suffering from Alzheimer's disease; experiment: Clinical trial of dimebon: blood and urea analysis; assay type: in vivo, human
Text: By the 8th week of the treatment the amount of leukocytes was normal again.

[2] = tested on: patients suffering from Alzheimer's disease; experiment: Clinical trial of dimebon: clinical observations of the mental state; assay type: in vivo, human
Method: (§1) The test was carried out under the direct supervision by two of the inventors, namely E. E. Bukatina and V. Grigorieva, in 14 patients who agreed to take part in the tests, 13 of whom lived in a boarding house for senile persons and one patient lived with their family.
(§2) Dimebon in the form of tablets (comprising 10 mg of dimebon, 30 mg of lactose, 5 mg of magnesium stearate was prescribed for oral administration in a dose of 0.02 g three to times a day. The patients living in the boarding house received dimebon for 58 days. A patient (observation 14) who was under outpatient observation continued taking the agent for a month after the completion of the tests.
The test results reflected the condition of the patients at the time of the examination. Any changes in the metal state observed in the interval between the tests and disappearing by the moment of examination according to the scale were described in the section “Clinical Observations”.
The pattern of the dynamics of the mental states of the patients during the treatment with dimebon registered in clinical observations is presented in Table 17.

[3] = tested on: patients suffering from Alzheimer's disease; experiment: Clinical trial of dimebon: EEG investigations; assay type: in vivo, human; details: any patients except one (observation 12: increase of focal Δ-waves, retardation of the rhythm)
Text: In observations 2, 11 and 14 the weakly positive dynamics of the EEG was manifested in weaker outbursts during hyperventilation and normalization of the zonal differences.

[4] = tested on: patients suffering from Alzheimer's disease; details: general statement on the agent used in medicine as antiallergic; cited from earlier work
[5] = tested on: patients suffering from Alzheimer's disease; experiment: Clinical trial of dimebon tablets, Hazegawa's scale (0 score = poorest result); assay type: in vivo, human
Method: as §1
Alzheimer's disease was diagnosed on the basis of criteria ICD-10 NINCDS ADRDA.
as §2
Before the treatment with dimebon, and at 4 and 8 weeks after treatment the patients were examined according to Hazegawa's scale and the inventors' scale (“Social and Clinical Psychiatry”, 1992, No.4, pp.29–37) which includes the following indexes: (1) orientation in locality, time, immediate surroundings and one's own personality; (2) orientation in space; (3) memory for the past; (4) memory for the present; (5) “life in the past”; (6) (a) articulation, (b) difficulty in finding words, and distortion of words; (c) naming of objects; (d) following instructions; (7) concentration (of attention); (8) an affective sphere; (a) high spirits, (b) low spirits; (9) delirium; (10) hearing hallucinations; (11) visual hallucinations; (12) senile or senile-like confusion (when motion anxiety is accompanied by the revival of the past experience); (13) irritability; (14) anxiety; (15) asthenia; (16) headaches; (17) dizziness; (18) tearfulness; (19) spontaneous activity; (20) elementary self-service; and (21 control of sphincters.
According to the Hazegawa's scale, the 0 score indicates the poorest result; on the contrary, according to the inventors' scale, the 0 score indicates the absence of a symptom 4 score indicates the greatest manifestation thereof. […] Before the therapy was started, the patients had been independently examined by two doctors who used the inventors' scale. The examination during the treatment was carried out by the doctors using both the scales. The evaluation according to all the inventors' scale points during all the tests and their variations during the treatment with dimebon are given in the Appendix.
Both absolute evaluations of the signs under investigation (the evaluation prior to treatment is a mean evaluation of the two examinations) and variations in them were analysed in the course of therapy. In doing so, only those changes that were beyond the range of evaluations obtained in two pre-treatment examinations were taken into consideration. […]

NMDA receptor = experiment: Anti-NMDA activity: prevention of convulsions and death caused by NMDA injected into the lateral ventricle of the brain; assay type: in vivo; details: mice; i.p. 40 minutes before NMDA 0.1 μg into the lateral ventricle; probit analysis
Method: The experiment was conducted in white non-inbred male mice of 20–24 g of weight. A solution of the test agent in 0.2 ml of 5% aqueous dimethylsulfoxide was injected intraperitoneally 40 minutes before the injection of NMDA into the lateral vehicle of the brain. For the mice that had been prepared beforehand for the experiment a skin flap on the head of each mouse was removed under ether anestesia and a hole was bored in the skull by a fine drill. NMDA (0.1 μg) in a volume of 1.4 μl was injected with a microsyringe. The microsyringe needle was immersed to a depth of 2.5 mm. After the operation, the wound was treated with a 2% novocaine solution. […] The accuracy of NMDA injection was monitored by injection of methylene blue. Two to 4 hours after the operation, the mice were used for a pharmacological experiment.
The animals inoculated with a saline solution were used as control.
Each dose of the agent was tested in a croup of 6–8 animals. The ED50 value (the dose of the agent preventing the development of convulsions and the death of 50% of the animals) was determined by a probit-analysis method (Litchfild J. T., Wicoxon F. J.—Pharmacol. Exp. Therap., 1949, v. 96, p. 99–114).

Cc1ccc2c(c1)c1c(n2CCc2ccc(C)nc2)CCN(C)C1 [No. 10, 2,8-dimethyl-5-[2-(6-methyl-3-pyridyl)ethyl]-2,3,4,5-tetrahydro-1H-pyrido[4,3-b]indole]
amount of leukocytes ([1]; after 4 weeks, within normal limits, p<0.05): significant reduction
amount of leukocytes ([1]; by the 8th week): normal again
hematological and biochemical status ([1]; during the course of the treatment): No pathologic changes
number of patients who became more active (cheerfulness and freshness) ([2]; 14 patients): 4 patients
number of patients who complained of headaches much less frequently ([2]; 14 patients): 4 patients
number of patients who slept better ([2]; 14 patients): 2 patients
number of patients with a distinct antidepressive effect ([2]; 14 patients): 8 patients
number of patients with a greater interest in what was happening around ([2]; 14 patients): 8 patients
psychopatic-like and depressive manifestations, conclusion ([2]; 14 patients): definite positive effect
psychopathic-like symptoms (lack of restraint, touchiness, conflict making, evil-mindedness or aggressiveness) ([2]; all 7 patients who suffered from them, during the first 2 weeks of therapy): decreased significantly
changes in the EEG during the course of treatment [3]: No changes in the EEG
toxicity and negative side-effects [4]: non-toxic and does not show any negative side-effects
Evaluation according to Hazegawa's scale, M +/− m ([5]; mean of 7 patients with nonprofound dementia, after 4 weeks): 20.79 +/− 1.85
Evaluation according to Hazegawa's scale, M +/− m ([5]; mean of 7 patients with nonprofound dementia, after 8 weeks): 23 +/− 1.17
Evaluation according to Hazegawa's scale, M +/− m ([5]; mean of 14 patients, after 4 weeks): 14.68 +/− 1.87
Evaluation according to Hazegawa's scale, M +/− m ([5]; mean of 14 patients, after 8 weeks): 15.68 +/− 2.39
ED50 (dose preventing the development of convulsions and the death of 50% of the animals) (NMDA receptor): 42 ± 6 mg/kg
